# “Also recorded” adds a separate entry of the source. Like-named read-outs stand apart in the source and are kept apart here. Where a SMILES comes first, the peptide text is derived from it.
# B1: Ac-HAEE-NH2 tetrapeptide (peptide)
# peptide: Ac-HAEE-NH2
# B2: Ac-RADD-NH2 (peptide)
# peptide: Ac-RADD-NH2
# Legend:
# immobilized Aβ16 = target: T1, immobilized Aβ16 (Homo sapiens, UniProt P05067); assay: Direct binding assay: surface plasmon resonance, tetrapeptides over immobilized Aβ16-G4-C; settings: for Ka × 10^-2 M^-1: 10 mM HEPES pH 6.8, Ka = kon/koff, mean±SD of three independent measurements; for koff: read-out: koff × 10^-3 s^-1
# T1 construct: purchased Biopeptide (San Diego, CA, USA); host or cells: chemical synthesis
# T1 sequence (P05067 with tags, fused parts or gaps limits assumed): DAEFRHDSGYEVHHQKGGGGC
# Method: Surface plasmon resonance (SPR) was utilized to detect the direct binding of the tetrapeptides to immobilized Aβ16-G4-C. All SPR experiments were carried out on a BIAcore T100 instrument (GE Healthcare, IL, USA). Research grade sensor chips CM5 carrying the hydrophilic carboxymethylated dextran matrix, HEPES Buffered Saline (HBS) buffer (10 mM HEPES (4-(2-hydroxyethyl)-1-piperazineethanesulfonic acid)), pH 7.4, 150 mM NaCl, 3 mM EDTA, 0.005% surfactant P20), 1-ethyl-3-(3-dimethylaminopropyl)-carbodiimide (EDC), N-hydroxysuccinimide (NHS), 2-(2-pyridinyldithio)-ethaneamine (PDEA), and cysteine were purchased from Biacore (GE, Boston, MA, USA). All other chemicals and solvents were of HPLC-grade or better and were obtained from MilliporeSigma (St. Louis, MO, USA). All buffers were filtered (0.45 μm, nylon) prior to use.
# Attachment of the synthetic peptide Aβ16-G4-C to the CM5 chip was performed according to the thiol bond formation protocol described in the Sensor surface handbook (GE Healthcare, Chicago, IL, USA). The carboxymethyl dextran matrix was activated by injection of a 1:1 mixture of EDC and NHS (30 μL, 400 mM EDC, 100 mM NHS) with the following injection of an 80 mM PDEA solution in 0.1 M sodium borate (pH 8.5). The Aβ16-G4-C solution was then injected into the activated flow cell (0.05 mg/mL peptide in 10 mM sodium acetate buffer, pH 4.5). Unreacted disulfide groups on the CM5 chip surface were capped with a 50 mM cysteine solution in 0.1 M sodium acetate buffer (pH 4.0). The change corresponding to the immobilization of Aβ16-G4-C was 1023 response units (RU). The flow rate used for all immobilization steps was 5 μL/min. An unmodified dextran surface was used as a reference surface.
# Then, the binding affinities of the immobilized Aβ16-G4-C to the following peptide-analytes were measured. Samples of Ac-HAEE-NH2 and other tetrapeptides were prepared by dilution of respective stock solutions in the running buffer (10 mM HEPES, pH 6.8). Each analyte was diluted to different concentrations (0 μM, 50 μM, 100 μM, 200 μM, 500 μM, 1000 μM, 1500 μM, 2000 μM) and injected in multichannel mode (volume 50 μL and rate 10 μL/min) during 300 s. Then, the chip surface was exposed to the running buffer without analyte for 120 s. After each injection of the analyte, the surface was regenerated with 5 μL of the regeneration buffer (HBS buffer containing 10 mM HEPES, 3 mM EDTA, 0.005% surfactant P20 and 150 mM NaCl, pH 7.4). The signal from the reference surface was subtracted from the raw data, obtained from the flow cell with the immobilized ligand.
# The kinetic rate constants were calculated from the sensorgrams by globally fitting the response curves obtained at various analyte concentrations using the Langmuir model (1:1 binding) in the BIAevaluation 4.1 program. The association (kon) and the dissociation (koff) rate constants were fitted simultaneously (1), dR/dt = kon C (Rmax − R) − koff R(1) where R stands for the biosensor response of the formed complex, C is the concentration of the analyte, and Rmax is the maximal theoretical value of the binding response for a given analyte.
# Using the obtained data dissociation (Kd) constant was calculated from the ratios of the association (kon) and dissociation (koff) rate constants: Kd = koff/kon, Ka = kon/koff.
# rat α4β2 nAChR = assay: Two-electrode voltage clamp in Xenopus laevis oocytes expressing α4β2 nAChR; assay type: cell-based; settings: for effect of washout with the peptide on current amplitude after Aβ42: 3 min, after 10 µM Aβ42
# Method: Two-electrode voltage clamp electrophysiology on the α4β2 nAChR expressed in Xenopus laevis oocytes was performed according to previously published protocols [7]. Stage V ± VI Xenopus laevis oocytes were defolliculated with 1 mg/mL collagenase Type I (Life Technologies, Carlsbad, CA, USA) at room temperature (21–24 °C) for 2 h in Barth’s solution without calcium (88.0 mM NaCl, 1.1 mM KCl, 2.4 mM NaHCO3, 0.8 mM MgSO4, 15.0 mM HEPES/NaOH, pH 7.6). The oocytes were stored in Barth’s solution with calcium for 72–120 h (88.0 mM NaCl, 1.1 mM KCl, 2.4 mM NaHCO3, 0.3 mM Ca(NO3)2, 0.4 mM CaCl2, 0.8 mM MgSO4, 15.0 mM HEPES/NaOH, pH 7.6) supplemented with 63.0 μg/mL penicillin-G sodium salt, 40.0 μg/mL streptomycin sulfate.
# Oocytes were injected with 3 ng plasmids coding the rat α4 and β2 nAChR subunits (pcDNA3.1 vector) in a molar ratio of 1:1 using an Auto-Nanoliter Injector NanoJect-2 (Drummond Scientific Company, Broomall, PA, USA) in a total injection volume of 23 nL. After injection, oocytes were incubated at 18 °C in Barth’s solution with calcium for 48–120 h. Electrophysiological recordings were made using a Turbo TEC-03X amplifier (npi electronic GmbH, Tamm, Germany) and WinWCP recording software (University of Strathclyde, Glasgow, UK). Oocytes were placed in a small recording chamber with a working volume of 50 μL and 100 μL of agonist (acetylcholine) solution in Barth’s buffer were applied to an oocyte. […] To allow receptor recovery from desensitization, the oocytes were superfused for 5–10 min with buffer (1 mL/min) between ligand applications. Electrophysiological recordings were performed at a holding potential of −60 mV.
# Data are presented as means of at least three independent experiments ± SD. The comparison of data groups in electrophysiology studies was performed with ordinary one-way ANOVA. Post-hoc analysis was performed with the Tukey test. Shapiro-Wilk test was used to confirm the normality of the dataset. Statistical analysis was performed using GraphPad Prism 8.4.1 software (GraphPad Software Inc., CA, USA).
# [1] = system: amyloid load in the brains; set-up: method as in PMID 26402624; settings: injections; cited from earlier work
# Aβ = settings: previously shown; reference not given; cited from earlier work
# Aβ16-G4-C, [Ac]-…-[NH2] = assay: SPR; Aβ16-G4-C immobilised by thiol coupling on a CM5 chip (1023 RU), BIAcore T100; tetrapeptides injected at 0-2000 μM, 10 μL/min, 300 s; running buffer 10 mM HEPES, pH 6.8; global fit, Langmuir 1:1 model; Kd = koff/kon
# [2] = Table S2, SPR, immobilized Aβ16, 25 °C
# [3] = Table S2, SPR, immobilized Aβ16, 25 °C, 10 mM HEPES pH 6.8, mean±SD of three independent measurements, read-out: Kd × 10^4 M
# [4] = Table S2, SPR, immobilized Aβ16, 25 °C, 10 mM HEPES pH 6.8, mean±SD of three independent measurements
# [5] = Table S2, SPR, immobilized Aβ16, 25 °C, 10 mM HEPES pH 6.8, mean±SD of three independent measurements, read-out: kon × M^-1 s^-1
# [6] = SPR, immobilized Aβ16, 10 mM HEPES pH 6.8
# [7] = SPR, BIAcore T100, Aβ16-G4-C on CM5 chip, running buffer 10 mM HEPES pH 6.8, 1:1 Langmuir global fit, Kd = koff/kon, read-out: dissociation constant Kd
molecule,measurement,setting,value
"CC(=O)N[C@@H](Cc1c[nH]cn1)C(=O)N[C@@H](C)C(=O)N[C@@H](CC(=O)O)C(=O)N[C@@H](CC(=O)O)C(N)=O [#1, Ac-HADD-NH2] (Ac-HADD-NH2)",Ka × 10^-2 M^-1,immobilized Aβ16; [2],3.08±0.08 × 10^-2 M^-1
same,Kd,immobilized Aβ16; [3],3250 ± 90 µM
same,koff,immobilized Aβ16; [4],0.0104 ± 2e-05 s⁻¹
same,kon,immobilized Aβ16; [5],3.2 ± 0.08 M⁻¹ s⁻¹
Ac-KAEE-NH2,binding to Aβ16 in the SPR assay (in words),immobilized Aβ16; [6],no binding was detected at all
"CC(=O)N[C@@H](CC(=O)O)C(=O)N[C@@H](CCC(=O)O)C(=O)N[C@@H](C)C(=O)N[C@@H](CCCNC(=N)N)C(N)=O [#12, Ac-DEAR-NH2] (Ac-DEAR-NH2)",Ka × 10^-2 M^-1,immobilized Aβ16; [2],5.1±0.2 × 10^-2 M^-1
same,Kd,immobilized Aβ16; [3],1980 ± 70 µM
same,koff,immobilized Aβ16; [4],0.00709 ± 9e-05 s⁻¹
same,kon,immobilized Aβ16; [5],3.58 ± 0.08 M⁻¹ s⁻¹
"CC(=O)N[C@@H](CCCCN)C(=O)N[C@@H](C)C(=O)N[C@@H](CCC(=O)O)C(=O)N[C@@H](CC(=O)O)C(N)=O [#9, Ac-KAED-NH2] (Ac-KAED-NH2)",Ka × 10^-2 M^-1,immobilized Aβ16; [2],3.1±0.6 × 10^-2 M^-1
same,Kd,immobilized Aβ16; [3],3300 ± 700 µM
same,koff,immobilized Aβ16; [4],0.019 ± 0.001 s⁻¹
same,kon,immobilized Aβ16; [5],5.7 ± 0.9 M⁻¹ s⁻¹
"CC(=O)N[C@@H](CCCCN)C(=O)N[C@@H](C)C(=O)N[C@@H](CC(=O)O)C(=O)N[C@@H](CCC(=O)O)C(N)=O [#15, Ac-KADE-NH2] (Ac-KADE-NH2)",Ka × 10^-2 M^-1,immobilized Aβ16; [2],2.2±0.1 × 10^-2 M^-1
same,Kd,immobilized Aβ16; [3],4500 ± 300 µM
same,koff,immobilized Aβ16; [4],0.0096 ± 0.0002 s⁻¹
same,kon,immobilized Aβ16; [5],2.2 ± 0.1 M⁻¹ s⁻¹
CC(=O)N[C@@H](CCCNC(=N)N)C(=O)N[C@@H](C)C(=O)N[C@@H](CC(=O)O)C(=O)N[C@@H](CC(=O)O)C(N)=O [Ac-RADD-NH2] (Ac-RADD-NH2),Kd,immobilized Aβ16; [7],13 µM
same,Ka × 10^-2 M^-1,immobilized Aβ16; [2],800±100 × 10^-2 M^-1
same,koff,immobilized Aβ16; [4],0.00024 ± 4e-05 s⁻¹
same,kon,immobilized Aβ16; [5],18.5 ± 0.1 M⁻¹ s⁻¹
"CC(=O)N[C@@H](CCC(=O)O)C(=O)N[C@@H](CC(=O)O)C(=O)N[C@@H](C)C(=O)N[C@@H](CCCCN)C(N)=O [#16, Ac-EDAK-NH2] (Ac-EDAK-NH2)",Ka × 10^-2 M^-1,immobilized Aβ16; [2],0.141±0.009 × 10^-2 M^-1
same,koff,immobilized Aβ16; [4],0.0097 ± 0.0002 s⁻¹
same,kon,immobilized Aβ16; [5],0.136 ± 0.006 M⁻¹ s⁻¹
CC(=O)N[C@@H](Cc1c[nH]cn1)C(=O)N[C@@H](C)C(=O)N[C@@H](CCC(=O)O)C(=O)N[C@@H](CCC(=O)O)C(N)=O [Ac-HAEE-NH2] (Ac-HAEE-NH2),Kd,immobilized Aβ16; [7],90 µM
same,kon,"immobilized Aβ16; SPR, immobilized Aβ16, 10 mM HEPES pH 6.8, read-out: kon",0.37 M⁻¹ s⁻¹
same,Ka × 10^-2 M^-1,immobilized Aβ16; [2],110±40 × 10^-2 M^-1
same,koff,immobilized Aβ16; [4],3.5e-05 ± 8e-06 s⁻¹
same,effect of washout with the peptide on current amplitude after Aβ42,"rat α4β2 nAChR; 25 µM in washout buffer, 100 µM ACh",did not affect the current amplitude
same,effect of washout with the peptide on current amplitude after Aβ42,"rat α4β2 nAChR; 50 µM in washout buffer, 100 µM ACh",less so at 50 µM
same,effect on Aβ42-induced inhibition when co-applied with Aβ42,"rat α4β2 nAChR; 100 µM Ac-HAEE-NH2 (10-times molar excess) with 10 µM Aβ42, 3 min pre-incubation, 100 µM ACh",the degree of inhibition was reduced significantly; also recorded: reduced the inhibitory effect of Aβ42 by half
same,leakage current after washout with peptide-containing buffer,rat α4β2 nAChR; 100 µM Ac-HAEE-NH2 washout after 10 µM Aβ42 and buffer washout,reduced the leakage current almost to the control values
same,effect of washout with the peptide on current amplitude after Aβ42,"rat α4β2 nAChR; 100 µM in washout buffer, 100 µM ACh",fully revoked the inhibition induced by Aβ42; also recorded: most effective at 100 µM
same,amplitude of ACh-evoked currents after washout with the peptide (over the range tested),"rat α4β2 nAChR; 25–100 µM in washout buffer after 10 µM Aβ42, 100 µM ACh",dose-dependently returned to the control levels; also recorded: completely restored the receptor response
same,effect on ACh-evoked current in the absence of Aβ42,rat α4β2 nAChR; α4β2 nAChR-expressing oocytes,did not affect ACh-evoked current
same,currents induced by the peptide itself,"rat α4β2 nAChR; α4β2 nAChR-expressing oocytes, no ACh",did not induce any currents
same,amyloid load in the brains of AD model mice,[1],effectively reduce the amyloid load
same,zinc-dependent oligomerization of Aβ,Aβ,prevent zinc-dependent oligomerization of Aβ
"CC(=O)N[C@@H](CC(=O)O)C(=O)N[C@@H](CC(=O)O)C(=O)N[C@@H](C)C(=O)N[C@@H](CCCCN)C(N)=O [#4, Ac-DDAK-NH2] (Ac-DDAK-NH2)",Ka × 10^-2 M^-1,immobilized Aβ16; [2],7.3±0.3 × 10^-2 M^-1
same,Kd,immobilized Aβ16; [3],1370 ± 50 µM
same,koff,immobilized Aβ16; [4],0.0062 ± 0.0001 s⁻¹
same,kon,immobilized Aβ16; [5],4.57 ± 0.09 M⁻¹ s⁻¹
"CC(=O)N[C@@H](CCC(=O)O)C(=O)N[C@@H](CC(=O)O)C(=O)N[C@@H](C)C(=O)N[C@@H](CCCNC(=N)N)C(N)=O [#18, Ac-EDAR-NH2] (Ac-EDAR-NH2)",Ka × 10^-2 M^-1,immobilized Aβ16; [2],0.28±0.03 × 10^-2 M^-1
same,koff,immobilized Aβ16; [4],0.0047 ± 0.0001 s⁻¹
same,kon,immobilized Aβ16; [5],0.13 ± 0.01 M⁻¹ s⁻¹
"CC(=O)N[C@@H](CC(=O)O)C(=O)N[C@@H](CC(=O)O)C(=O)N[C@@H](C)C(=O)N[C@@H](Cc1c[nH]cn1)C(N)=O [#2, Ac-DDAH-NH2] (Ac-DDAH-NH2)",koff,immobilized Aβ16; [4],0.0154 ± 0.0001 s⁻¹
same,kon,immobilized Aβ16; [5],0.52 ± 0.01 M⁻¹ s⁻¹
same,Kd,immobilized Aβ16; read-out: Ka × 10^-2 M^-1 (converted),2970 µM
CC(=O)N[C@@H](CCCNC(=N)N)C(=O)N[C@@H](C)C(=O)N[C@@H](CCC(=O)O)C(=O)N[C@@H](CCC(=O)O)C(N)=O [Ac-RAEE-NH2] (Ac-RAEE-NH2),binding to Aβ16 in the SPR assay (in words),immobilized Aβ16; [6],two orders of magnitude weaker binding than Ac-HAEE-NH2
same,Ka × 10^-2 M^-1,immobilized Aβ16; [2],1.3±0.1 × 10^-2 M^-1
same,Kd,immobilized Aβ16; [3],7700 ± 600 µM
same,koff,immobilized Aβ16; [4],0.0112 ± 8e-05 s⁻¹
same,kon,immobilized Aβ16; [5],1.5 ± 0.1 M⁻¹ s⁻¹
B1,Kd,"Aβ16-G4-C, [Ac]-…-[NH2]",90 µM
same,koff,"Aβ16-G4-C, [Ac]-…-[NH2]",4e-05 s⁻¹
same,kon,"Aβ16-G4-C, [Ac]-…-[NH2]",0.37 M⁻¹ s⁻¹
B2,Kd,"Aβ16-G4-C, [Ac]-…-[NH2]",13 µM

# Source: paper PMC7504039, “Tetrapeptide Ac-HAEE-NH2 Protects α4β2 nAChR from Inhibition by Aβ” (International Journal of Molecular Sciences, 2020)
